Assay results from patent US9980980B2, “Compounds, compositions and methods for protecting brain health in neurodegenerative disorders” (Amazentis SA, priority 2009, dated 2018).

How the values were obtained:
Aβ(25-35) = target: T1, Aβ(25-35) (Homo sapiens, UniProt P05067); assay: Screening assay for inhibition of Aβ(25-35) aggregation (Thioflavin-T fluorescence); assay type: biochemical; settings: molecule at purity above 90%; ThT fluorescence, 25° C., 0-120 minutes; read-out: IC50 for inhibiting aggregation of Aβ25-35
T1 construct: Monomeric Aβ(25-35) purchased from Bachem Pharma; purchased Bachem Pharma
Experimental: Monomeric Aβ(25-35) purchased from Bachem Pharma, was dissolved in distilled sterile water at 4° C., then sonitcated for about 1 minute. The peptide stock solution was then aliquoted and stored at −20° C. All steps were carried out at 4° C. to prevent Aβ(25-35) polymerization.
Fractions of polyphenols were all standardized to 10 μg/mL, before being assessed and stored at −20° C. Measurement of inhibition was performed by following the kinetic of Aβ(25-35) polymerization in a reaction mixture containing 70 μL phosphate buffer, 10 μL Thioflavin-T (100 μM stock solution), 10 μL MeOH (10 mM final concentration) pH 7.2 and 10 μL of Aβ(25-35) (100 μM final concentration) adapting known in the art procedures. LeVine, H., 3rd (1993). “Thioflavine T interaction with synthetic Alzheimer's disease beta-amyloid peptides: detection of amyloid aggregation in solution.” Protein Sci. 2(3): 404-10. When Aβ(25-35) was added to the buffer solution, the solution was sonicated for an additional minute.
To study the inhibitory activity of the fractions, the extracts were diluted to the final concentration in MeOH and 10 μL was added to the mixture at 4° C. Fluorescence spectroscopy was recorded with the excitation at 450 nm and emission at 490 nm. The polymerization kinetics was monitored at 25° C. between 0 and 120 minutes. The IC50 was calculated by using a least-square fitting technique to match the experimental data with a sigmoidal curve. The IC50 was the effective concentration dose of the compound inhibiting the formation of Aβ fibrils to 50% of the control value.

PC12 cells = assay: Inhibition of Aβ-oligomer induced neuronal cell death in PC12 cells (MTT); assay type: cell-based, Rat; settings: pre-aggregated Aβ (25-35) 10 μM, 24 h; MTT cell viability
Experimental: The fractions that were able to inhibits oligomer formation were also tested for their ability to inhibit Aβ-oligomer induced neuronal cell death using […], a well known and accepted model of neuronal cell culture.
Beta Amyloid peptide (Aβ) 25-35 trifluoroacetate salt (ref H-1192, lot 2000718) was purchased from Bachem (Bubebdorf, Switzerland). Thiazolyl Blue Tetrazolium Bromide (MTT, ref. M2128) was purchased from Sigma-Aldrich (Saint-Quentin Fallvier, France). Albumin Bovine Fraction V (BSA, ref 160069) was purchased from MPBio (Irvine, USA).
Cells: Rat Pheochromocytoma cells (PC12) were maintained in DMEM (4.5 g/L glucose) supplemented with 10% Horse Serum (HS), 5% Fetal Bovine Serum (FCS) and 100 U/mL penicillin and 100 μg/mL Streptomycin at 37° C. under 5% CO2.
Preparation of Aβ (25-35): It has been reported that Aβ oligomers are more toxic to neurons than monomers. […]
Determination of Hydro-Alcoholic Pomegranate Extracts Ability to Protect PC12 Cells Against Aβ Insult: The ability of Pomegranate extracts to protect PC12 cells from Aβ (25-35) oligomer induced toxicity was determined by measuring reduction of MTT to MTT formazan, which reflects cell viability. […] The level of MTT reduction and thus cell viability was determined by a colorimetric assay measuring the optical density at 595 nm using a microplate reader (BioTek EL808).

| Compound | IC50 (Aβ(25-35)) [µM] | protection of PC12 neuronal cells from the toxicity of Aβ (25-35) oligomers (PC12 cells) |
| --- | --- | --- |
| O=C1O[C@H]2[C@@H]3OC(=O)c4cc(O)c(O)c(O)c4-c4c(O)c(O)c5oc(=O)c6c(c(O)c(O)c7oc(=O)c4c5c76)-c4c(cc(O)c(O)c4O)C(=O)OC[C@H]3OC(O)[C@@H]2OC(=O)c2cc(O)c(O)c(O)c2-c2c1cc(O)c(O)c2O (mixture of isomers) [Punicalagin] | 6 | responsible for the observed activity |
| O=C1OC[C@H]2OC(O)[C@H](O)[C@@H](O)[C@@H]2OC(=O)c2cc(O)c(O)c(O)c2-c2c(O)c(O)c3oc(=O)c4c(c(O)c(O)c5oc(=O)c2c3c54)-c2c1cc(O)c(O)c2O (mixture of isomers) [Punicalin] | 10 |  |
| O=C(O[C@@H]1O[C@@H]2COC(=O)c3cc(O)c(O)c(O)c3-c3c(cc(O)c(O)c3O)C(=O)O[C@H]([C@H]1O)[C@@H]2O)c1cc(O)c(O)c(O)c1 [Corilagin] | 65 |  |
| O=C1OC[C@H]2OC(O)[C@@H]3OC(=O)c4cc(O)c(O)c(O)c4-c4c(cc(O)c(O)c4O)C(=O)O[C@H]3[C@@H]2OC(=O)c2cc(O)c(O)c(O)c2-c2c1cc(O)c(O)c2O (stereo partly drawn) [Pedunculagin] | 11 |  |
| Tellimagrandin | 6.8 |  |
